# Results from PMC7262777 (Journal of medicinal chemistry, 2020).
# Columns and labels:
# 168 known GPCRs = details: 10 μM
# [1] = test system: D3R-expressing dopaminergic neurons derived from human iPSCs; test: MTT cell viability, protection from 6-OHDA-induced cell death
# [2] = target: alpha2B-adrenergic receptor (Homo sapiens, UniProt P18089); details: 10 μM
# [3] = target: D2R (short and long isoforms) (Homo sapiens, UniProt P14416); test: DiscoverX gpcrMAX panel, agonist mode, D2R; details: 10 μM
# D3R [4] = target: T1, D3R (Homo sapiens, UniProt P35462); details: 10 μM
# human 5-HT2B = human 5-HT2B (Homo sapiens, UniProt P41595); test: Inositol 1-phosphate; type: cell-based
# human D2RL = human D2RL (Homo sapiens, UniProt P14416); test: [3H]-methylspiperone competition binding, D2R membranes
# D2R = D2R (Homo sapiens, UniProt P14416); test: β-arrestin recruitment DiscoverX PathHunter assay, agonist mode, D2R; type: cell-based
# D3R [5] = target: T1, D3R; test: β-arrestin recruitment DiscoverX PathHunter assay, agonist mode, D3R; type: cell-based
# [6] = test system: all other receptor subtypes (D1R, D2R, D4R, D5R); type: cell-based; details: β-arrestin recruitment
# ADRA2C = target: T2, ADRA2C (Homo sapiens, UniProt P18825); test: DiscoverX gpcrMAX panel, antagonist mode, ADRA2C; details: 10 μM, percent inhibition of EC80 reference agonist
# T2 sequence (P18825 1-462): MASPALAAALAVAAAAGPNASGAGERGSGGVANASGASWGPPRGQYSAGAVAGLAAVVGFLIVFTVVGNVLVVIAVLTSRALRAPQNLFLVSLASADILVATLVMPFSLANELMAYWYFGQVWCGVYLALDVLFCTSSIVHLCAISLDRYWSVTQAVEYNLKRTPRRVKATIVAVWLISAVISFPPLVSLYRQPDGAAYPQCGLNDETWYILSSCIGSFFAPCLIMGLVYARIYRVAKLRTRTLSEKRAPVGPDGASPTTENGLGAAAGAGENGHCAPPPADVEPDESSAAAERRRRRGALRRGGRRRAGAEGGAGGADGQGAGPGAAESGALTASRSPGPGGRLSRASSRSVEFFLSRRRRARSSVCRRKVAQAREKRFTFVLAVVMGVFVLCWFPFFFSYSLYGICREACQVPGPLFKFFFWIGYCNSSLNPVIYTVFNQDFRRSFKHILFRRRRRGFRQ
# pKa titration = type: physicochemical
# bacteria = test: Ames reverse mutation assay
# HTR2A = HTR2A (Homo sapiens, UniProt P28223); test: DiscoverX gpcrMAX panel, antagonist mode, HTR2A; type: cell-based; details: 10 μM, percent inhibition of EC80 reference agonist
# chemokine CXCR7 receptor = chemokine CXCR7 receptor (Homo sapiens, UniProt P25106); test: DiscoverX gpcrMAX panel, agonist mode, CXCR7; details: 10 μM
# D4R = target: T3, D4R (Homo sapiens, UniProt P21917); test: DiscoverX gpcrMAX panel, agonist mode, D4R; details: 10 μM
# T3 sequence (P21917 1-419): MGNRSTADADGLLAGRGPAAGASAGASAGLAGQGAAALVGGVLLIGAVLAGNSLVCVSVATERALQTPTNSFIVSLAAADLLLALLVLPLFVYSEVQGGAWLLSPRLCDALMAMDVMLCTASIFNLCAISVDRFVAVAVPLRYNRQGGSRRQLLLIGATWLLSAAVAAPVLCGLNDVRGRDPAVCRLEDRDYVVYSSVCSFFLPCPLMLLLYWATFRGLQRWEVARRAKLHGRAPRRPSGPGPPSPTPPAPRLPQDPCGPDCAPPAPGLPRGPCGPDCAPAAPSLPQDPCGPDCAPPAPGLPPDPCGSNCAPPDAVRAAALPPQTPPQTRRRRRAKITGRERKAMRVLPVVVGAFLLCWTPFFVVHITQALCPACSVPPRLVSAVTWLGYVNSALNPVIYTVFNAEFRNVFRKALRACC
# T1 sequence (P35462 whole entry): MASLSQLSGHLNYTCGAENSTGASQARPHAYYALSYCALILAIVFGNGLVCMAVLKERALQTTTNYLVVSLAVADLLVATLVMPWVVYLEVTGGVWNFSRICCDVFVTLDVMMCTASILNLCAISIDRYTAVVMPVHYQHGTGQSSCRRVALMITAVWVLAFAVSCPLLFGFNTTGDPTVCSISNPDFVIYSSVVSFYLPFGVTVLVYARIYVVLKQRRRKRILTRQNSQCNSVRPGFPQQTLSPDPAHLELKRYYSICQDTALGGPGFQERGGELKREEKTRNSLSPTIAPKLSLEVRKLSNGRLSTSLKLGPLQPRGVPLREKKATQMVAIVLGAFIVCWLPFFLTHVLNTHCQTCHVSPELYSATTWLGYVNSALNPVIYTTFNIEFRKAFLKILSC
# D2R, sequence (P14416 whole entry): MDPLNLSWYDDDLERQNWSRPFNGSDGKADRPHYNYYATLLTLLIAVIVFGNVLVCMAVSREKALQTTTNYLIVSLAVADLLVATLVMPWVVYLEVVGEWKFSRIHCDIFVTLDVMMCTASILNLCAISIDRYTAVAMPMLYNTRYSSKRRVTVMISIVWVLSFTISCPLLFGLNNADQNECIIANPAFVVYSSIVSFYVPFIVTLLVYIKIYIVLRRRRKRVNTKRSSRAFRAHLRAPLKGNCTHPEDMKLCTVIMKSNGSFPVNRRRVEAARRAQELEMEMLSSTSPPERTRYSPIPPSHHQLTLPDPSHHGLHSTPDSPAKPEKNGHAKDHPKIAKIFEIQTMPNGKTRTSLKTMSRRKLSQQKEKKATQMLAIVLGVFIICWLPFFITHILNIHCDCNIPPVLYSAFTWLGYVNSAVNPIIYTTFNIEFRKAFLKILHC
# human 5-HT2B, sequence (P41595 whole entry): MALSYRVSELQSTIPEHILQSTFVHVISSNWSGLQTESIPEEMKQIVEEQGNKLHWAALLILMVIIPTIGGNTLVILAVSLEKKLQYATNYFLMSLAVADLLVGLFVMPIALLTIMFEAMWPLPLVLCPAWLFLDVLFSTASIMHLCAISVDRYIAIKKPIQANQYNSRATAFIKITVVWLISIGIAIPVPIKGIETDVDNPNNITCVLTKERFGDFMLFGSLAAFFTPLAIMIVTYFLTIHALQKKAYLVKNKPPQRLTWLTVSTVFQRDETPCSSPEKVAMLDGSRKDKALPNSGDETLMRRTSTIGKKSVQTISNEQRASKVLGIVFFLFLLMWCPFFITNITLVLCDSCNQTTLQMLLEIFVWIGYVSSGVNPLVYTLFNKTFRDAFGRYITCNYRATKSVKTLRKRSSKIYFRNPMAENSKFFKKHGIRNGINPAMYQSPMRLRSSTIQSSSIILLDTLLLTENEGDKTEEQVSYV
# D2R (short and long isoforms), sequence (P14416 1-414 isoform P14416-2): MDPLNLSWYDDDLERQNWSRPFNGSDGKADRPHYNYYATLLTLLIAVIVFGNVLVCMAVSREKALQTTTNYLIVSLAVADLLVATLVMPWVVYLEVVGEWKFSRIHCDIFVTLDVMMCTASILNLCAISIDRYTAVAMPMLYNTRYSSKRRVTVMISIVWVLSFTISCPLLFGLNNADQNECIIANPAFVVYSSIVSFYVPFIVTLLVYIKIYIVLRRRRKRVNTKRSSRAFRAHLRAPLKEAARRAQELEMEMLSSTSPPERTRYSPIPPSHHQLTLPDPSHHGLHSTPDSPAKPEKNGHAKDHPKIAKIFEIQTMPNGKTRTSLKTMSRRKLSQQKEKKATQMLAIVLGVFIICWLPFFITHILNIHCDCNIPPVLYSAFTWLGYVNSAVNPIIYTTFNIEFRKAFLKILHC
# human D2RL, sequence (P14416 whole entry): as the sequence (P14416 whole entry) above
# alpha2B-adrenergic receptor, sequence (P18089 whole entry, canonical isoform): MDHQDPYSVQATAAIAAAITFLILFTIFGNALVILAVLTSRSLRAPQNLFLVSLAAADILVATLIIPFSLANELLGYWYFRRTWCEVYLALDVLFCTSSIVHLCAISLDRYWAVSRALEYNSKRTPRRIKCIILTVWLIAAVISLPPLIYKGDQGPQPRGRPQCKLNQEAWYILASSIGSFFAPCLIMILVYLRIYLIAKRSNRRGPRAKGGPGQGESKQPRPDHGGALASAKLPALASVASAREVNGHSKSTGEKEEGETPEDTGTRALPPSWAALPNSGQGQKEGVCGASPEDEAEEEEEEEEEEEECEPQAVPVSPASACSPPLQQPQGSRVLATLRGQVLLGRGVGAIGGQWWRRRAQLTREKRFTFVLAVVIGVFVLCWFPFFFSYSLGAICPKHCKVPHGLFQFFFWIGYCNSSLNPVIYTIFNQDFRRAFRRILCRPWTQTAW
# chemokine CXCR7 receptor, sequence (P25106 whole entry): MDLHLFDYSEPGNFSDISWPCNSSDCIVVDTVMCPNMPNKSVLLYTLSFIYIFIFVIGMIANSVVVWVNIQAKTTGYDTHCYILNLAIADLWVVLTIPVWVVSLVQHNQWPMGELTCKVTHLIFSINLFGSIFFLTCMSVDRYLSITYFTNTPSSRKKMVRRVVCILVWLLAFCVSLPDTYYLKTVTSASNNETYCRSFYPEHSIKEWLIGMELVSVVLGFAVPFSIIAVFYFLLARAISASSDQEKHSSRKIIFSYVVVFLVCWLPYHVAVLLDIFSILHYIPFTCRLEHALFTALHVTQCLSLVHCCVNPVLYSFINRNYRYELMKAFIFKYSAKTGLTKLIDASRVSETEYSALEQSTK
# HTR2A, sequence (P28223 whole entry): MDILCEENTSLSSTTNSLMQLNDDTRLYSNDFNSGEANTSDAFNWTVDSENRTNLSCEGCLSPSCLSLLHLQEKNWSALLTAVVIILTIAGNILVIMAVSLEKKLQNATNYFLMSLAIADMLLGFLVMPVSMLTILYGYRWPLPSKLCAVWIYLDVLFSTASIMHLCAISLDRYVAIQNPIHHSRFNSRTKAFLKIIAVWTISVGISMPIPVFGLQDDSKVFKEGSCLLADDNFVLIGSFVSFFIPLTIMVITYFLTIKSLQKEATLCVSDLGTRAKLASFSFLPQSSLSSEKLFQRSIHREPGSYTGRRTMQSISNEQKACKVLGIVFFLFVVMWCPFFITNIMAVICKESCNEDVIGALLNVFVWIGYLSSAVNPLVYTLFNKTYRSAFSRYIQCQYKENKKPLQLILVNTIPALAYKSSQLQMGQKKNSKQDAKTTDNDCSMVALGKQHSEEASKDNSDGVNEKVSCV
smiles,measurement,setting,value
"CCCN[C@H]1CCc2nc(N)sc2C1 [Pramipexole, pramipexole]",antagonist activity at any of the GPCRs tested,168 known GPCRs,did not exhibit antagonist activity
same,concentration giving significant reduction in 6-OHDA-induced cell death,"[1]; 24 h pretreatment, 30 μM 6-OHDA 24 h, MTT",500 nM
same,"agonist activity, alpha2B-adrenergic receptor (gpcrMAX)",[2],partial agonist activity
same,"agonist activity, D2R (gpcrMAX)",[3],full agonist activity
same,"agonist activity, D3R (gpcrMAX)",D3R [4],full agonist activity
"Cn1ccc2cc3c(cc21)CCN3C(=O)Nc1cccnc1 [SB206553, reference compound]",IC50,human 5-HT2B,13 nM
"NCCc1cc(O)c(O)cc1O [Compound 6-OHDA, 6-hydroxydopamine]",reduction of cell viability,"[1]; 30 μM, 24 hr, no drug (vehicle)",62 ± 8%
"COc1ccc(OCCN2CCN(C(=O)c3ccc(OC)cc3)CC2)cc1 [Compound 1, (4-(2-(4-Methoxyphenoxy)ethyl)piperazin-1-yl)(4-methoxyphenyl)methanone]",IC50 for inhibiting [3H]-methylspiperone binding to the D2R,human D2RL,no measurable ability to displace binding
same,D2R agonist activity EC50,"D2R; β-arrestin recruitment (DiscoverX), agonist mode",No measurable agonist activity
"COc1ccc2cc(C(=O)N3CCN(CCOc4cccnc4)CC3)[nH]c2c1 [Compound 58, (6-Methoxy-1H-indol-2-yl)(4-(2-(pyridin-3-yloxy)ethyl)piperazin-1-yl)methanone]",D3R agonist activity EC50,D3R [5],single-digit nanomolar range
"COc1ccc(OCCN2CCN(C(=O)c3cc4ccccc4[nH]3)CC2)cc1 [Compound 20, (1H-Indol-2-yl)(4-(2-(4-methoxyphenoxy)ethyl)piperazin-1-yl)methanone]",agonist efficacy at other dopamine receptor subtypes,[6],minimal agonist efficacy
same,"partial antagonist activity, ADRA2C",ADRA2C,36%
same,5-HT2B agonist activity (IP1 accumulation),human 5-HT2B; 10 μM,no agonist activity
same,pKa,pKa titration,8.62
same,AMES reverse mutation assay,bacteria,no toxicity was observed
same,"agonist activity, D2R (gpcrMAX)",[3],"small, but measurable agonist responses"
same,"partial antagonist activity, HTR2A",HTR2A,37%
"COc1ccc2[nH]c(C(=O)N3CCN(CCOc4cccnc4)CC3)cc2c1 [Compound 59, (5-Methoxy-1H-indol-2-yl)(4-(2-(pyridin-3-yloxy)ethyl)piperazin-1-yl)methanone]",D2R agonist activity Emax,D2R; percentage of the maximum dopamine response,97 ± 2.8 % control
CCCN(CC[C@]1(O)C[C@H](NC(=O)c2ccc3ccccc3c2)C1)[C@H]1CCc2nc(N)sc2C1 [CJ-1639],"agonist activity, CXCR7 (gpcrMAX)",chemokine CXCR7 receptor,partial agonist activities
same,"agonist activity, D4R (gpcrMAX)",D4R,partial agonist activities
same,"agonist activity, D3R (gpcrMAX)",D3R [4],full agonist
